Laboratory results as given in PubChem BioAssay (NCI).
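48-hour exposure; five concentrations; linearly interpolated endpoints. GI50 is the concentration that inhibits growth by half. TGI marks complete inhibition of growth.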

Columns and labels:
Experiment in all cases: NCI tumour cell line growth inhibition, 48 h
SF-539 CNS = system: SF-539 CNS
SF-295 CNS = system: SF-295 CNS
UO-31 renal = system: UO-31 renal
A498 renal = system: A498 renal
MDA-MB-435 = system: MDA-MB-435
MALME-3M melanoma = system: MALME-3M melanoma
DU-145 prostate = system: DU-145 prostate
HT29 colon = system: HT29 colon
K-562 leukemia = system: K-562 leukemia
COLO 205 colon = system: COLO 205 colon
NCI-H23 lung = system: NCI-H23 lung
SF-268 CNS = system: SF-268 CNS
SNB-19 CNS = system: SNB-19 CNS
U251 CNS = system: U251 CNS
HOP-62 NSCLC = system: HOP-62 NSCLC
HCT-15 colon = system: HCT-15 colon
NCI/ADR-RES ovarian = system: NCI/ADR-RES ovarian
ACHN renal = system: ACHN renal
HCT-116 colon = system: HCT-116 colon
UACC-62 melanoma = system: UACC-62 melanoma
OVCAR-5 ovarian = system: OVCAR-5 ovarian
NCI-H522 lung = system: NCI-H522 lung
HL-60(TB) leukemia = system: HL-60(TB) leukemia
HOP-92 NSCLC = system: HOP-92 NSCLC
CAKI-1 renal = system: CAKI-1 renal
SK-MEL-2 melanoma = system: SK-MEL-2 melanoma
A549 NSCLC = system: A549 NSCLC
LOX IMVI melanoma = system: LOX IMVI melanoma
SN12C renal = system: SN12C renal
NCI-H226 lung = system: NCI-H226 lung
OVCAR-4 ovarian = system: OVCAR-4 ovarian
RXF 393 renal = system: RXF 393 renal
KM12 colon = system: KM12 colon
BT-549 breast = system: BT-549 breast
SNB-75 CNS = system: SNB-75 CNS
IGROV1 ovarian = system: IGROV1 ovarian
MOLT-4 leukemia = system: MOLT-4 leukemia
EKVX NSCLC = system: EKVX NSCLC
HCC-2998 colon = system: HCC-2998 colon
SK-MEL-5 melanoma = system: SK-MEL-5 melanoma
SK-OV-3 ovarian = system: SK-OV-3 ovarian
OVCAR-8 ovarian = system: OVCAR-8 ovarian
SW-620 colon = system: SW-620 colon
CCRF-CEM leukemia = system: CCRF-CEM leukemia
M14 melanoma = system: M14 melanoma
OVCAR-3 ovarian = system: OVCAR-3 ovarian
786-0 renal = system: 786-0 renal
MDA-MB-231 breast = system: MDA-MB-231 breast
T-47D breast = system: T-47D breast
HS 578T breast = system: HS 578T breast
RPMI-8226 leukemia = system: RPMI-8226 leukemia
SK-MEL-28 melanoma = system: SK-MEL-28 melanoma
SR leukemia = system: SR leukemia
MCF7 breast = system: MCF7 breast
NCI-H460 lung = system: NCI-H460 lung
TK-10 renal = system: TK-10 renal
PC-3 prostate = system: PC-3 prostate
UACC-257 melanoma = system: UACC-257 melanoma

CCCCCCC1N=C(N)N=C(N)N1c1ccc(Cl)cc1 (stereo unspecified)
GI50 (SF-539 CNS): 4.16 µM | TGI (SF-539 CNS): 18 µM | GI50 (SF-295 CNS): 2.58 µM | TGI (SF-295 CNS): 17.6 µM | GI50 (UO-31 renal): 57.1 µM | TGI (UO-31 renal): > 100 µM | GI50 (A498 renal): 7.05 µM | TGI (A498 renal): 24.8 µM | GI50 (MDA-MB-435): 3.36 µM | TGI (MDA-MB-435): 17.5 µM | GI50 (MALME-3M melanoma): 2.1 µM | TGI (MALME-3M melanoma): 21 µM | GI50 (DU-145 prostate): 12.1 µM | TGI (DU-145 prostate): > 100 µM | GI50 (HT29 colon): 2.66 µM | TGI (HT29 colon): 16.8 µM | GI50 (K-562 leukemia): 5.55 µM | TGI (K-562 leukemia): > 100 µM | GI50 (COLO 205 colon): 12.5 µM | TGI (COLO 205 colon): 26.7 µM | GI50 (NCI-H23 lung): 5.79 µM | TGI (NCI-H23 lung): 38 µM | GI50 (SF-268 CNS): 3.78 µM | TGI (SF-268 CNS): 21.7 µM | GI50 (SNB-19 CNS): 8.62 µM | TGI (SNB-19 CNS): 24.9 µM | GI50 (U251 CNS): 2.53 µM | TGI (U251 CNS): 14.7 µM | GI50 (HOP-62 NSCLC): 6.93 µM | TGI (HOP-62 NSCLC): 39.6 µM | GI50 (HCT-15 colon): > 100 µM | TGI (HCT-15 colon): > 100 µM | GI50 (NCI/ADR-RES ovarian): > 100 µM | TGI (NCI/ADR-RES ovarian): > 100 µM | GI50 (ACHN renal): > 100 µM | TGI (ACHN renal): > 100 µM | GI50 (HCT-116 colon): 3.2 µM | TGI (HCT-116 colon): 15.8 µM | GI50 (UACC-62 melanoma): 8.55 µM | TGI (UACC-62 melanoma): 37.6 µM | GI50 (OVCAR-5 ovarian): 10.7 µM | TGI (OVCAR-5 ovarian): > 100 µM | GI50 (NCI-H522 lung): 6.53 µM | TGI (NCI-H522 lung): 22.2 µM | GI50 (HL-60(TB) leukemia): 10.1 µM | TGI (HL-60(TB) leukemia): 28.3 µM | GI50 (HOP-92 NSCLC): 2.62 µM | TGI (HOP-92 NSCLC): 22.1 µM | GI50 (CAKI-1 renal): > 100 µM | TGI (CAKI-1 renal): > 100 µM | GI50 (SK-MEL-2 melanoma): 11.7 µM | TGI (SK-MEL-2 melanoma): 26.3 µM | GI50 (A549 NSCLC): 4.83 µM | TGI (A549 NSCLC): > 100 µM | GI50 (LOX IMVI melanoma): 3.87 µM | TGI (LOX IMVI melanoma): 14.7 µM | GI50 (SN12C renal): 3.76 µM | TGI (SN12C renal): 16.1 µM | GI50 (NCI-H226 lung): 13.2 µM | TGI (NCI-H226 lung): 54.2 µM | GI50 (OVCAR-4 ovarian): 14.4 µM | TGI (OVCAR-4 ovarian): 60 µM | GI50 (RXF 393 renal): 10.6 µM | TGI (RXF 393 renal): 38.6 µM | GI50 (KM12 colon): 10.4 µM | TGI (KM12 colon): 22.9 µM | GI50 (BT-549 breast): 3.37 µM | TGI (BT-549 breast): 18.3 µM | GI50 (SNB-75 CNS): 6.31 µM | TGI (SNB-75 CNS): 33.5 µM | GI50 (IGROV1 ovarian): 3.53 µM | TGI (IGROV1 ovarian): 17.4 µM | GI50 (MOLT-4 leukemia): 7.03 µM | TGI (MOLT-4 leukemia): 32.5 µM | GI50 (EKVX NSCLC): 8.7 µM | TGI (EKVX NSCLC): 45.4 µM | GI50 (HCC-2998 colon): 8.95 µM | TGI (HCC-2998 colon): 22 µM | GI50 (SK-MEL-5 melanoma): 3.47 µM | TGI (SK-MEL-5 melanoma): 14.7 µM | GI50 (SK-OV-3 ovarian): 20.9 µM | TGI (SK-OV-3 ovarian): 63.1 µM | GI50 (OVCAR-8 ovarian): 6.43 µM | TGI (OVCAR-8 ovarian): > 100 µM | GI50 (SW-620 colon): 4.05 µM | TGI (SW-620 colon): 32.2 µM | GI50 (CCRF-CEM leukemia): 4.67 µM | TGI (CCRF-CEM leukemia): 81.3 µM | GI50 (M14 melanoma): 3.04 µM | TGI (M14 melanoma): 23.5 µM | GI50 (OVCAR-3 ovarian): 12.2 µM | TGI (OVCAR-3 ovarian): 32.6 µM | GI50 (786-0 renal): 4.63 µM | TGI (786-0 renal): 47.1 µM | GI50 (MDA-MB-231 breast): 11.2 µM | TGI (MDA-MB-231 breast): 25.9 µM | GI50 (T-47D breast): 20 µM | TGI (T-47D breast): 70.5 µM | GI50 (HS 578T breast): 2.35 µM | TGI (HS 578T breast): 18.2 µM | GI50 (RPMI-8226 leukemia): 8.62 µM | TGI (RPMI-8226 leukemia): 30 µM | GI50 (SK-MEL-28 melanoma): 8.66 µM | TGI (SK-MEL-28 melanoma): 21.8 µM | GI50 (SR leukemia): 3 µM | TGI (SR leukemia): 11.9 µM | GI50 (MCF7 breast): 11.4 µM | TGI (MCF7 breast): 25.6 µM | GI50 (NCI-H460 lung): 4.69 µM | TGI (NCI-H460 lung): 18.5 µM | GI50 (TK-10 renal): 31.4 µM | TGI (TK-10 renal): > 100 µM | GI50 (PC-3 prostate): 2.9 µM | TGI (PC-3 prostate): 52.8 µM | GI50 (UACC-257 melanoma): 13 µM | TGI (UACC-257 melanoma): 68.8 µM
